{"source": "ChEMBL document CHEMBL2021805", "about": "“Structural polymorphism of human telomere G-quadruplex induced by a pyridyl carboxamide molecule” (Bioorg Med Chem Lett, 2012)", "type_in_all_cases": "nucleic-acid assay", "key": {"Nucleic Acid [1]": {"test_system": "Nucleic Acid", "assay": "Stabilization of human G-quadruplex G4A in 100 mM K+ solution assessed as formation of stable parallel structure measuring transformation rate constant at 60 uM after 1 day at 37 degC by CD spectroscopy"}, "Nucleic Acid [2]": {"test_system": "Nucleic Acid", "assay": "Stabilization of human hybrid-type G-quadruplex G4A in 100 mM K+ solution at room temperature assessed as formation of anti-parallel structure at 60 uM by CD spectroscopy"}, "Nucleic Acid [3]": {"test_system": "Nucleic Acid", "assay": "Binding affinity to human G-quadruplex FAM-21G at 10 uM after 2 to 24 hrs by native PAGE analysis"}, "Nucleic Acid [4]": {"test_system": "Nucleic Acid", "assay": "Stabilization of human G-quadruplex G4A in 100 mM K+ solution assessed as time required to the formation of stable snti-parallel quadruplex structure at 60 uM at 37 degC by CD spectroscopy"}, "Nucleic Acid [5]": {"test_system": "Nucleic Acid", "assay": "Stabilization of human G-quadruplex G4A in 100 mM K+ solution assessed as formation of stable parallel structure at 60 uM after 1 day at 37 degC by CD spectroscopy"}, "Nucleic Acid [6]": {"test_system": "Nucleic Acid", "assay": "Binding affinity to human G-quadruplex FAM-21G at 20 uM by native PAGE analysis"}, "Nucleic Acid [7]": {"test_system": "Nucleic Acid", "assay": "Stabilization of human G-quadruplex G4A in 100 mM K+ solution assessed as formation of stable parallel structure at 60 uM after heating at 95 degC and cooling to room temperature by CD spectroscopy"}, "Nucleic Acid [8]": {"test_system": "Nucleic Acid", "assay": "Stabilization of human G-quadruplex G4A in 100 mM K+ solution assessed as time required to the formation of stable parallel structure at 60 uM at 37 degC by CD spectroscopy"}, "Nucleic Acid [9]": {"test_system": "Nucleic Acid", "assay": "Stabilization of human hybrid-type G-quadruplex G4A in 100 mM Na+ solution at room temperature assessed as formation of anti-parallel structure at 60 uM by CD spectroscopy"}, "Nucleic Acid [10]": {"test_system": "Nucleic Acid", "assay": "Binding affinity to human G-quadruplex Ap-6 substituted 21G assessed as fluorescence quenching using ascorbic acid at 5 uM up to 1 hr by fluorescence analysis"}, "Nucleic Acid [11]": {"test_system": "Nucleic Acid", "assay": "Binding affinity to human G-quadruplex Ap-12 substituted 21G assessed as fluorescence quenching using ascorbic acid at 5 uM up to 1 hr by fluorescence analysis"}, "Nucleic Acid [12]": {"test_system": "Nucleic Acid", "assay": "Binding affinity to human G-quadruplex Ap-6 substituted 21G at 5 uM up to 1 hr by fluorescence analysis"}, "Nucleic Acid [13]": {"test_system": "Nucleic Acid", "assay": "Binding affinity to human G-quadruplex Ap-18 substituted 21G assessed as fluorescence quenching using ascorbic acid at 5 uM up to 1 hr by fluorescence analysis"}, "Nucleic Acid [14]": {"test_system": "Nucleic Acid", "assay": "Binding affinity to human G-quadruplex Ap-18 substituted 21G at 5 uM up to 1 hr by fluorescence analysis"}, "Nucleic Acid [15]": {"test_system": "Nucleic Acid", "assay": "Binding affinity to human G-quadruplex Ap-12 substituted 21G at 5 uM up to 1 hr by fluorescence analysis"}}, "note": "Calls of active or inactive are those of the source. The calls are words filed in the database; no cut-off is given here.", "data": [{"smiles": "C[N+]1(CC(=O)Nc2cccc(NC(=O)c3cccc(C(=O)Nc4cccc(NC(=O)C[N+]5(C)CCCCC5)n4)n3)n2)CCCCC1", "values": [{"measurement": "Activity", "setting": "Nucleic Acid [1]", "value": 6.2, "unit": "×10⁻⁵ /s"}, {"measurement": "Activity", "setting": "Nucleic Acid [2]", "value": "Active"}, {"measurement": "Activity", "setting": "Nucleic Acid [3]", "value": "Active"}, {"measurement": "TIME", "setting": "Nucleic Acid [4]", "value": 3, "unit": "h"}, {"measurement": "Activity", "setting": "Nucleic Acid [5]", "value": 99, "unit": "%"}, {"measurement": "Activity", "setting": "Nucleic Acid [6]", "value": "Active"}, {"measurement": "Activity", "setting": "Nucleic Acid [7]", "value": "Active"}, {"measurement": "TIME", "setting": "Nucleic Acid [8]", "value": 20, "unit": "h"}, {"measurement": "Activity", "setting": "Nucleic Acid [9]", "value": "inactive"}, {"measurement": "Activity", "setting": "Nucleic Acid [10]", "value": "Active"}, {"measurement": "Activity", "setting": "Nucleic Acid [11]", "value": "Active"}, {"measurement": "Activity", "setting": "Nucleic Acid [12]", "value": "Active"}, {"measurement": "Activity", "setting": "Nucleic Acid [13]", "value": "Active"}, {"measurement": "Activity", "setting": "Nucleic Acid [14]", "value": "Active"}, {"measurement": "Activity", "setting": "Nucleic Acid [15]", "value": "Active"}]}]}
